What is called IC50 is the concentration that inhibits the measured activity by half. Read a high IC50 as weaker potency in that assay. As usually defined, the inhibition is how much of the control response was suppressed.

The text below walks through data of US7427625B2, “Substituted thiatriazaacenaphthylene-6-carbonitrile kinase inhibitors” (Janssen Pharmaceutica, N.V., priority 2006, dated 2008).

A value given as a limit tells only on which side of the number the result lay.

Common to all, as to assay type: biochemical
One assay has as its target T1, EGFR (Homo sapiens, UniProt P00533).
T1 construct: The intracellular portion of EGFR started at nucleotide 2189 (corresponding to amino acid 667) and ended at the termination codon; made in house; host or cells: Sf9 insect cells (baculovirus)
Kind of assay: EGFR Kinase Assay. In outline:
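GST-fused EGFR intracellular domain (aa 667 to end), Sf9-expressed, phosphorylating biotinylated polyGluTyr with 5 μM ATP plus γ-33P ATP in Tris pH 8.0, MgCl2, vanadate, 1 mM DTT; 1 h, 30 °C, streptavidin Flashplate scintillation read. Triplicate 16-point half-log series from 200 uM; IC50 from % inhibition vs log concentration, else % inhibition at 2 μM.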

In the next assay the target is T2, HER-2 (Homo sapiens, UniProt P04626).
T2 construct: the nucleotides encoding amino acids 679 to 1255 of HER-2; purchased Proqinase (Freiburg, Germany)
T2 sequence (P04626 679-1255): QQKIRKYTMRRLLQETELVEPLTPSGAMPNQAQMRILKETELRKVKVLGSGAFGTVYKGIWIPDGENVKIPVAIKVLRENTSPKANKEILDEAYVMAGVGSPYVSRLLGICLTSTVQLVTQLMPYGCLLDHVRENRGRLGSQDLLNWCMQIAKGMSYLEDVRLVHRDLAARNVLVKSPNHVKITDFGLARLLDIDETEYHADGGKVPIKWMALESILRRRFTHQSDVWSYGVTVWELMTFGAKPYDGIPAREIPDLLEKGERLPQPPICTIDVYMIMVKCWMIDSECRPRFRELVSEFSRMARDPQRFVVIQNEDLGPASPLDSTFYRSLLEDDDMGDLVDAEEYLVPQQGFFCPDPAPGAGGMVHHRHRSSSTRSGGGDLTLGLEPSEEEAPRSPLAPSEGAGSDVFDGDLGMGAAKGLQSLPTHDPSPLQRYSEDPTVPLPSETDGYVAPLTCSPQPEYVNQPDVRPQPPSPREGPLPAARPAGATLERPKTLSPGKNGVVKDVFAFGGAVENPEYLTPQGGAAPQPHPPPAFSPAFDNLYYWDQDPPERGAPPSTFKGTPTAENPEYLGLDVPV
As to the kind of experiment: HER-2 Kinase Assay. In outline:
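GST-HIS6-thrombin fusion of HER-2 residues 679–1255, assayed with biotinylated polyGluTyr, 1 μM ATP plus γ-33P-ATP, Mg2+, Mn2+ and vanadate in Hepes pH 7.5 for 1 h at 30 °C. Incorporation read by streptavidin Flashplate scintillation counting; IC50 values, or % inhibition at 1 μM.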

The next assay addresses T3, c-Src kinase (Homo sapiens, UniProt P12931).
T3 construct: purchased Upstate Biotechnology, Lake Placid, N.Y
As to the kind of experiment: c-Src Kinase Assay. Particulars: test concentration of 2 μM; read-out: c-Src percent inhibition. On the procedure: A mixture of a 10× kinase buffer (80 mM MOPS at pH 7.0, 2 mM EDTA and 100 mM Magnesium Chloride), ATP (5 μM final from a 10 mM stock), a Cdc2 peptide KVEKIGEGTYVVYK (100 μM final from a 2.5 mM stock), γ-^33P ATP (10 μCi/μL stock) and water (20 μL/well) was added to each well of a Streptavidin Flashplate.
Test compound in 100% DMSO (0.5 μL) was added to the appropriate wells. Diluted c-Src kinase (human) (Upstate Biotechnology, Lake Placid, N.Y.) (diluted in a buffer consisting of 20 mM MOPS at pH 7.0, 1 mM EDTA, β-mercaptoethanol (0.1%), Brij-35 (0.01%), glycerol (5%) and 1 mg/mL bovine serum albumin) (2.5 μL) was added to the wells to initiate the reactions. The reaction plates were incubated at 30° C. for 40 min. The reaction was terminated by the addition of a 3% phosphoric acid solution (5 μL). The reaction product (10 μL) was spotted onto a P30 filtermat and washed for 5 minutes in phosphoric acid (75 mM). The wash sequence was repeated two more times, followed with one final wash in methanol. The plates were then dried, sealed and read on the TopCount scintillation counter after adding 30 μL scintillation fluid.
Percent inhibition was derived according to the procedure described in Example 2. For those compounds without an IC50, the percent inhibition results are shown at a test concentration of 2 μM.

T1 sequence (P00533 669-1210 limits assumed): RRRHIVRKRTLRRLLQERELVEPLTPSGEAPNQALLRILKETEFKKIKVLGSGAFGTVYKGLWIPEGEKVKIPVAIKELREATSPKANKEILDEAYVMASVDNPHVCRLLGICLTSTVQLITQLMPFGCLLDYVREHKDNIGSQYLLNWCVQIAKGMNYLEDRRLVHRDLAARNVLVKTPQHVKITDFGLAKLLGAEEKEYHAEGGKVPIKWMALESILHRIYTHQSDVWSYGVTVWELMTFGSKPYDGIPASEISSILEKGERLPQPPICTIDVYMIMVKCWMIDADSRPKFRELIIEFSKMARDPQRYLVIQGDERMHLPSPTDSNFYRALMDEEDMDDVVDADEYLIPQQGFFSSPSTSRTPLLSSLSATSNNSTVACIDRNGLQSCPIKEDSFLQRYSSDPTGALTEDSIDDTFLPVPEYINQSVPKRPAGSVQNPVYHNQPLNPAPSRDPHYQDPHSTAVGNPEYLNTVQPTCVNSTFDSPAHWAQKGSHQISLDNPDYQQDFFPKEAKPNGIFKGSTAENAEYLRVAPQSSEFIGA
T3 sequence (P12931 whole entry): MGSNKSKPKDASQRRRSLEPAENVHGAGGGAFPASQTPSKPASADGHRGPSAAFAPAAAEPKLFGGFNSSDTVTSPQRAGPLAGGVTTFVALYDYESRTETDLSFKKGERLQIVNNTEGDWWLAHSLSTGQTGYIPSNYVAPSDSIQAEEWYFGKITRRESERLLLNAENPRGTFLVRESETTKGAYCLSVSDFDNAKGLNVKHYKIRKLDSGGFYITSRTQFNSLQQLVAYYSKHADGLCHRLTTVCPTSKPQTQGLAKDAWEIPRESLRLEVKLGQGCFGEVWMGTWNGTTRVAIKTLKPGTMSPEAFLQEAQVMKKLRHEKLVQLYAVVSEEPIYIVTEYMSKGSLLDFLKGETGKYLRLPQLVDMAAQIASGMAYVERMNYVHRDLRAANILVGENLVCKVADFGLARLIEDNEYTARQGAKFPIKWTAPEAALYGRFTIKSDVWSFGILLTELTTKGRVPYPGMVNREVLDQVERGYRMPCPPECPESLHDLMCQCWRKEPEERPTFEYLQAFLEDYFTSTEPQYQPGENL

Regarding `CC1CCN(Cc2ccc(NC(=O)c3sc4ncc(C#N)c5c4c3NC(=O)N5c3c(Cl)ccc4c3OCO4)cc2)CC1` [Cpd 19, 5-(5-chloro-benzo[1,3]dioxol-4-yl)-6-cyano-4-oxo-4,5-dihydro-3H-1-thia-3,5,8-triaza-acenaphthylene-2-carboxylic acid [4-(4-methyl-piperidin-1-ylmethyl)-phenyl]-amide], on EGFR, inhibition was half-maximal at 624 nM (IC50). Besides, the inhibition at 1 µM at HER-2 (test concentration of 1 μM, read-out: HER-2 percent inhibition) stood at 49%. Moreover, the inhibition at 2 µM on c-Src kinase came out at 90%.

On to `Cc1nc2sc(C(=O)Nc3ccc(CN4CCOCC4)cc3)c3c2c(c1C#N)N(c1c(Cl)ccc2c1OCO2)C(=O)N3` [Cpd 9, 5-(5-chloro-benzo[1,3]dioxol-4-yl)-6-cyano-7-methyl-4-oxo-4,5-dihydro-3H-1-thia-3,5,8-triaza-acenaphthylene-2-carboxylic acid (4-morpholin-4-ylmethyl-phenyl)-amide], for which the inhibition at 2 µM at EGFR (test concentration of 2 μM, read-out: EGFR percent inhibition) stood at 14%; at c-Src kinase it was 11%. Further, the IC50 against HER-2 is more than 10000 nM.
